In ChEMBL document CHEMBL1150918, “Phospholipase Cgamma1 inhibitory principles from the sarcotestas of Ginkgo biloba” (J Nat Prod, 1998):
pIC50: −log10 of the molar value. Converted amounts (≈) assume the structure as drawn.

How the values were obtained:
[1] = target: T1, 1-phosphatidylinositol 4,5-bisphosphate phosphodiesterase gamma-1 (Bos taurus, UniProt P08487); experiment: Inhibition of bovine brain PI-PLCgamma1
T1 sequence (P08487 whole entry): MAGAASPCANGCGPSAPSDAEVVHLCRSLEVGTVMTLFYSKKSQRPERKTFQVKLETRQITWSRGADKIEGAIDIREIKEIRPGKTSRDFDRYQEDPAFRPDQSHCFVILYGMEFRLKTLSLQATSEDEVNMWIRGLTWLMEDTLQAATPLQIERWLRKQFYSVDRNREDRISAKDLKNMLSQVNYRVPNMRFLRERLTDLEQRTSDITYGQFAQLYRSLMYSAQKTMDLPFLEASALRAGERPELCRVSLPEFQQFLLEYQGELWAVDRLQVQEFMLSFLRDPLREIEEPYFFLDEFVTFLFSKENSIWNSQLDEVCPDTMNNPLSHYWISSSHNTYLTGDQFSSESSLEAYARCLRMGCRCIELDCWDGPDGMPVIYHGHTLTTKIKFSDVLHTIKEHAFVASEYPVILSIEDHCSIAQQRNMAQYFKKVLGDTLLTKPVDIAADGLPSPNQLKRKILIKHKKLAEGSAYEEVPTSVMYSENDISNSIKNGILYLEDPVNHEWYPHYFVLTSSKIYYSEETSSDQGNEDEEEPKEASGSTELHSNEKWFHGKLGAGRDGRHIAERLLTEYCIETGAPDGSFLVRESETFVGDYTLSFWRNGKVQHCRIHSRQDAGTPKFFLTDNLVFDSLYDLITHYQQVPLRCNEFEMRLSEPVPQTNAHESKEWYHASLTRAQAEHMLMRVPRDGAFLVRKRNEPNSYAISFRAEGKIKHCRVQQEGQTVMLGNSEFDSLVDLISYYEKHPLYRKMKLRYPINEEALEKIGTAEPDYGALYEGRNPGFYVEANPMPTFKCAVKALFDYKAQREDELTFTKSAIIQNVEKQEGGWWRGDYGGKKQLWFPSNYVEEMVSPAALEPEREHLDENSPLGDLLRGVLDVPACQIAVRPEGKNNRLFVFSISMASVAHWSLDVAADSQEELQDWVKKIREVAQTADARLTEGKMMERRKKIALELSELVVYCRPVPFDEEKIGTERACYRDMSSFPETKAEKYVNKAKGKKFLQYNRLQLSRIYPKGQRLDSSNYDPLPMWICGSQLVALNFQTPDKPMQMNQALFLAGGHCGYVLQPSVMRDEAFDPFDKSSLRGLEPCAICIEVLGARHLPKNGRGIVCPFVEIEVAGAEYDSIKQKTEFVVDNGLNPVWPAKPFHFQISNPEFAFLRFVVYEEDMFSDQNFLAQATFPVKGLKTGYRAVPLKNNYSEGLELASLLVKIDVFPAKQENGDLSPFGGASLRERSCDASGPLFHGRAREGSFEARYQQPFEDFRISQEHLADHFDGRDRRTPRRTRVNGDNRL

HT1197 = experiment: Growth inhibition of human HT1197 cells after 2 days by SRB assay; type: functional, cell-based; conditions: HT1197, 48 h
HCT-15 = experiment: Growth inhibition of human HCT15 cells after 2 days by SRB assay; type: functional, cell-based; conditions: HCT-15, 48 h
MCF7 = experiment: Growth inhibition of human MCF7 cells after 2 days by SRB assay; type: functional, cell-based; conditions: MCF7, 48 h
A549 = experiment: Growth inhibition of human A549 cells after 2 days by SRB assay; type: functional, cell-based; conditions: A549, 48 h
SK-OV-3 = experiment: Growth inhibition of human SKOV3 cells after 2 days by SRB assay; type: functional, cell-based; conditions: SK-OV-3, 48 h
[2] = Growth inhibition of human CCD-18Co cells after 2 days by SRB assay; type: cell-based; conditions: 48 h
[3] = target: T2, 1-phosphatidylinositol 4,5-bisphosphate phosphodiesterase gamma-1 (Rattus norvegicus, UniProt P10686); experiment: Inhibition of rat brain PI-PLCgamma1
T2 sequence (P10686 whole entry): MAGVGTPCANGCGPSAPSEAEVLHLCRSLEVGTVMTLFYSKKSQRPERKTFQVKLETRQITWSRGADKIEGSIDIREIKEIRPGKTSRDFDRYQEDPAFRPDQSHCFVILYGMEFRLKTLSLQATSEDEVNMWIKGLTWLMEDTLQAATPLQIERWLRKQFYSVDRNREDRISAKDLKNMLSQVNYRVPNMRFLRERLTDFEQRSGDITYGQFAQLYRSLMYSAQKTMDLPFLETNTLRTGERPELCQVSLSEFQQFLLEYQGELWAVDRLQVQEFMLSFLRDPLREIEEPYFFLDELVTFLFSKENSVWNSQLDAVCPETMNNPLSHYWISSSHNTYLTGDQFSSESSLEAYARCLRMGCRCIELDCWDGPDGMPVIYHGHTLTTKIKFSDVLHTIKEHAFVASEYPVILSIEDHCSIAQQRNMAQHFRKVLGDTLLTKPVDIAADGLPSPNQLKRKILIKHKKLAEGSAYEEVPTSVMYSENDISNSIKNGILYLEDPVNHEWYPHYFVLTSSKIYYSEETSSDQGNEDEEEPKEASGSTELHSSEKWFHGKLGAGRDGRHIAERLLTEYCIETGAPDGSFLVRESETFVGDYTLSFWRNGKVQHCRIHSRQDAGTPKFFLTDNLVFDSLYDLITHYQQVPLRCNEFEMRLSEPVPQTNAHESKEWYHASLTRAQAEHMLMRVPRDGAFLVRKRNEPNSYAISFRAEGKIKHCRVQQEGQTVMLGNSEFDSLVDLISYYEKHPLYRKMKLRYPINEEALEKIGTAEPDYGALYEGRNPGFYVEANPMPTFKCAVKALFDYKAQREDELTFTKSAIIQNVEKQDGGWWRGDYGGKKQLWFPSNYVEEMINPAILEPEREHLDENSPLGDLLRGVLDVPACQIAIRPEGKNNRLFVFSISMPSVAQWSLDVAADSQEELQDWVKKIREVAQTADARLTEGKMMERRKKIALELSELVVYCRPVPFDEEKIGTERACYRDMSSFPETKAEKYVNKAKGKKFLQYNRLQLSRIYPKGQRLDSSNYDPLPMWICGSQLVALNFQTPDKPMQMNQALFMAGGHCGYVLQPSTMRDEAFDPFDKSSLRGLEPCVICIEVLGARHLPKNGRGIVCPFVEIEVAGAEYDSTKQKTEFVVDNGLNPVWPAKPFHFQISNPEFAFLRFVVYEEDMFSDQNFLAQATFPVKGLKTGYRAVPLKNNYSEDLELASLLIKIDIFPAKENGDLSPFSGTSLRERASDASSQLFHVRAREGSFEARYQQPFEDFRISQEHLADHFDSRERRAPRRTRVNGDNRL

[4] = Inhibition of pig brain PI-PLCgamma1; set-up: species or system Sus scrofa

pIC50 [1]	IC50 (HCT-15) [µg/mL]	IC50 (MCF7) [µg/mL]	IC50 (A549) [µg/mL]	SMILES	IC50 (HT1197) [µg/mL]	other results
4.54				O=c1cc(-c2ccc(O)c(-c3c(O)cc(O)c4c(=O)cc(-c5ccc(O)cc5)oc34)c2)oc2cc(O)cc(O)c12 [AMENTOFLAVONE]		
< 3.14				CCCCCC/C=C\CCCCCCCc1cccc(OC(C)=O)c1		
4.24	31.9 (≈ 105 µM)	8.71 (≈ 28.6 µM)	11.9 (≈ 39.1 µM)	CCCCCCCCCCCCCCCc1cccc(O)c1	41.8 (≈ 137 µM)	
5.25	12.7 (≈ 36.7 µM)	6.44 (≈ 18.6 µM)	31.3 (≈ 90.3 µM)	CCCCCC/C=C\CCCCCCCc1cccc(O)c1C(=O)O [GINGKOLIC ACID]	46.3 (≈ 134 µM)	IC50 (SK-OV-3): > 50 µg/mL; IC50 [2]: 97.1 µg/mL (≈ 280 µM)
				CC(=O)c1cc2c(=O)c3c(C(=O)O)c(O)c(O)cc3oc2c(C(C)=O)c1-c1coc2cc(O)c(O)c(C(=O)O)c2c1=O [VINAXANTHONE]		pIC50 [3]: 5.27
4.14	15.3 (≈ 52.4 µM)	1.91 (≈ 6.53 µM)	> 50	CCCCCCCCCCCCCc1cc(O)cc(O)c1	2.2 (≈ 7.52 µM)	IC50 (SK-OV-3): > 50 µg/mL; IC50 [2]: > 100 µg/mL
< 3.21				CCCCCC/C=C\CCCCCCCc1cc(OC(C)=O)cc(OC(C)=O)c1		
				C[C@@H]1CC[C@H]2[C@]13CC[C@@]1(C)O[C@]2(C)[C@@H](NCCCCN(C)CCCN(C)C)[C@H]1C3 [HISPIDOSPERMIDIN]		pIC50 [3]: 4.80
< 3.21				CCCCCC/C=C\CCCCCCCc1cccc(OC(C)=O)c1C(=O)OC		
< 3.16				CCCCCC/C=C\CCCCCCCc1cccc(O)c1C(=O)OC		
4.79	> 50	22.7 (≈ 70.7 µM)	> 50	CCCCCCCCCCCCCc1cccc(O)c1C(=O)O [GINKGOLIC ACID 13:0]	44.6 (≈ 139 µM)	IC50 (SK-OV-3): 20.4 µg/mL (≈ 63.7 µM); IC50 [2]: 59.1 µg/mL (≈ 184 µM)
4.51				CCCCCC/C=C\CCCCCCCCCc1cc(O)cc(O)c1		
				CC(=O)O[C@@H]1[C@H](O[C@H](CO)[C@H](O)[C@@H](O)[C@@H](OC(C)=O)C(=O)O[C@H](C)CCCCCCCCCCCCCCCc2cccc(O)c2C(=O)O)O[C@H](CO)[C@@H](O)[C@@H]1O [CALOPOROSIDE]		pIC50 [4]: 4.74
5.01	32.9 (≈ 99.5 µM)	7.19 (≈ 21.8 µM)	11.8 (≈ 35.7 µM)	CCCCCC/C=C\CCCCCCCCCc1cccc(O)c1	20.8 (≈ 63 µM)	IC50 [2]: 66.4 µg/mL (≈ 201 µM)
5.65	8.39 (≈ 22.4 µM)	5.06 (≈ 13.5 µM)	29.2 (≈ 78 µM)	CCCCCC/C=C\CCCCCCCCCc1cccc(O)c1C(=O)O [GINKGOLIC ACID 17:1]	28.1 (≈ 75.1 µM)	IC50 (SK-OV-3): > 50 µg/mL
< 2.70				Cc1cc(O)cc(O)c1 [ORCINOL]		
4.24	29.7 (≈ 107 µM)	7.04 (≈ 25.5 µM)	25.9 (≈ 93.7 µM)	CCCCCCCCCCCCCc1cccc(O)c1	14.6 (≈ 52.7 µM)	IC50 (SK-OV-3): > 50 µg/mL; IC50 [2]: 73.2 µg/mL (≈ 265 µM)

SMILES	pIC50 [1]	IC50 (HCT-15) [µg/mL]	IC50 (MCF7) [µg/mL]	IC50 (A549) [µg/mL]	IC50 (HT1197) [µg/mL]	other results
Cc1cccc(O)c1 [METACRESOL]	< 2.64					
O=C(O)c1ccccc1O [SALICYLIC ACID]	3.06					
